Source: the NIST ThermoML archive (doi:10.1016/j.jct.2018.03.013)

Test: xn = mol fraction of the nth substance listed
Conditions: 100 kPa, Liquid; for speed of sound: Frequency=3 MHz, Linear variable-path acoustic interferometer; for mass density: Pycnometric method

C=C(C)C(=O)OC [methyl methacrylate] + CC#N
Conditions	mass density [kg/m3]	speed of sound [m/s]
293.15 K, x2 = 0	943.38	1200.5
293.15 K, x2 = 0.0688	938.34	1207.5
293.15 K, x2 = 0.1376	932.76	1214.3
293.15 K, x2 = 0.1957	927.6	1220
293.15 K, x2 = 0.2716	920.18	1227.3
293.15 K, x2 = 0.3344	913.41	1233.2
293.15 K, x2 = 0.4135	903.99	1240.5
293.15 K, x2 = 0.4916	893.58	1247.5
293.15 K, x2 = 0.5649	882.66	1254.2
293.15 K, x2 = 0.6386	870.38	1261
293.15 K, x2 = 0.7084	857.36	1267.7
293.15 K, x2 = 0.7927	839.5	1276.4
293.15 K, x2 = 0.855	824.53	1283.5
293.15 K, x2 = 0.9073	810.58	1290.3
293.15 K, x2 = 0.9497	798.21	1296.3
298.15 K, x2 = 0	937.64	1183.6
298.15 K, x2 = 0.0688	932.64	1190.6
298.15 K, x2 = 0.1376	927.09	1197.2
298.15 K, x2 = 0.1957	921.95	1202.7
298.15 K, x2 = 0.2716	914.56	1209.7
298.15 K, x2 = 0.3344	907.81	1215.3
298.15 K, x2 = 0.4135	898.42	1222.3
298.15 K, x2 = 0.4916	888.04	1229
298.15 K, x2 = 0.5649	877.15	1235.3
298.15 K, x2 = 0.6386	864.91	1241.7
298.15 K, x2 = 0.7084	851.92	1248
298.15 K, x2 = 0.7927	834.09	1256.2
298.15 K, x2 = 0.855	819.15	1263
298.15 K, x2 = 0.9073	805.23	1269.3
298.15 K, x2 = 0.9497	792.88	1275
303.15 K, x2 = 0	931.9	1168.5
303.15 K, x2 = 0.0688	926.94	1175.5
303.15 K, x2 = 0.1376	921.42	1182
303.15 K, x2 = 0.1957	916.3	1187.4
303.15 K, x2 = 0.2716	908.94	1194.1
303.15 K, x2 = 0.3344	902.21	1199.5
303.15 K, x2 = 0.4135	892.85	1206.2
303.15 K, x2 = 0.4916	882.5	1212.6
303.15 K, x2 = 0.5649	871.64	1218.6
303.15 K, x2 = 0.6386	859.43	1224.8
303.15 K, x2 = 0.7084	846.47	1230.8
303.15 K, x2 = 0.7927	828.68	1238.7
303.15 K, x2 = 0.855	813.77	1245.1
303.15 K, x2 = 0.9073	799.87	1251.2
303.15 K, x2 = 0.9497	787.55	1256.6
308.15 K, x2 = 0	926.16	1152.6
308.15 K, x2 = 0.0688	921.23	1159.6
308.15 K, x2 = 0.1376	915.74	1166
308.15 K, x2 = 0.1957	910.65	1171.2
308.15 K, x2 = 0.2716	903.31	1177.8
308.15 K, x2 = 0.3344	896.61	1183
308.15 K, x2 = 0.4135	887.27	1189.5
308.15 K, x2 = 0.4916	876.95	1195.7
308.15 K, x2 = 0.5649	866.13	1201.5
308.15 K, x2 = 0.6386	853.94	1207.4
308.15 K, x2 = 0.7084	841.01	1213.2
308.15 K, x2 = 0.7927	823.27	1220.8
308.15 K, x2 = 0.855	808.39	1227.1
308.15 K, x2 = 0.9073	794.51	1233
308.15 K, x2 = 0.9497	782.21	1238.2
313.15 K, x2 = 0	920.42	1135.4
313.15 K, x2 = 0.0688	915.52	1142.4
313.15 K, x2 = 0.1376	910.06	1148.7
313.15 K, x2 = 0.1957	904.99	1153.9
313.15 K, x2 = 0.2716	897.68	1160.3
313.15 K, x2 = 0.3344	891	1165.6
313.15 K, x2 = 0.4135	881.69	1172
313.15 K, x2 = 0.4916	871.4	1178.1
313.15 K, x2 = 0.5649	860.61	1183.8
313.15 K, x2 = 0.6386	848.45	1189.5
313.15 K, x2 = 0.7084	835.55	1195.2
313.15 K, x2 = 0.7927	817.85	1202.7
313.15 K, x2 = 0.855	803	1208.9
313.15 K, x2 = 0.9073	789.15	1214.7
313.15 K, x2 = 0.9497	776.87	1219.8
318.15 K, x2 = 0	914.67	1118.3
318.15 K, x2 = 0.0688	909.81	1125.1
318.15 K, x2 = 0.1376	904.38	1131.5
318.15 K, x2 = 0.1957	899.33	1136.6
318.15 K, x2 = 0.2716	892.05	1143.1
318.15 K, x2 = 0.3344	885.39	1148.2
318.15 K, x2 = 0.4135	876.11	1154.5
318.15 K, x2 = 0.4916	865.85	1160.5
318.15 K, x2 = 0.5649	855.09	1166.1
318.15 K, x2 = 0.6386	842.96	1171.8
318.15 K, x2 = 0.7084	830.09	1177.3
318.15 K, x2 = 0.7927	812.43	1184.6
318.15 K, x2 = 0.855	797.61	1190.7
318.15 K, x2 = 0.9073	783.79	1196.3
318.15 K, x2 = 0.9497	771.53	1201.4
